Measurements as given in article PMC5399447, “Neuroprotective pentapeptide CN-105 is associated with reduced sterile inflammation and improved functional outcomes in a traumatic brain injury murine model” (Scientific Reports, 2017).

Key:
[1] = tested on: murine closed head injury model (TBI); experiment: Rotarod vestibulomotor function after closed head injury; format: in vivo, mouse; conditions: for Rotarod functional performance compared to vehicle: n = 11-12/group
Description: The murine closed head injury model used in this study was previously described. The closed head impact results in injury to selectively vulnerable neurons in cortex and hippocampus, and is associated with vestibulomotor deficits and long term neurocognitive deficits. Although animals do lose body weight, they rapidly regain spontaneous ventilation, righting reflex, and the ability to ambulate. Briefly, 12–14 week-old C57Bl/6 J male mice(Jackson Laboratories, Bar Harbor, ME) were used. The trachea was intubated after anesthesia induction with 4.6% isoflurane and the lungs were mechanically ventilated with 1.6% isoflurane in 30% O2/70% N2. Core body temperature was maintained at 37 °C through a rectal probe. To avoid basilar skull fracture, ear bars are not used. The animal was secured in a stereotactic device in a prone position on a molded acrylic cast with surgical tape across the shoulders. The intubation tube was also secured to the acrylic cast with tape. The acrylic cast is designed to allow the mouse to have 3 mm of space below the head to allow for acceleration/decelaration of the head in this position. The head was shaved and the scalp was incised to expose the skull and identify anatomical landmarks. A concave 3-mm metallic disc was adhered to the skull immediately caudal to bregma. A 2.0-mm diameter pneumatic impactor(Air-Power Inc., High Point, NC) was used to deliver a single midline impact to the center of the disc surface. The impactor was discharged at 6.8 ± 0.2 m/second with a head displacement of 3 mm. After impact, the animals were allowed to recover spontaneous ventilation and then the tracheas were extubated. Mice were allowed free access to food and water. Sham mice were treated identically except for the absence of impact. All mice were housed in the same facility.
CN-105(Ac-VSRRR-amide) was synthesized by Polypeptide Inc.(San Diego, CA) to a purity of >99%, and was delivered in sterile normal saline. […] Vehicle treated animals received intravenous injection of 100 μL of normal saline at the same time points. Animals were assigned to treatment group by a coded study identification number after injury using a paper randomization protocol. A block randomization scheme was used, so that an equal number of animals were randomized to each of the treatment groups during concurrent experiments.
An automated Rotarod(Ugo Basile, Comerio, Italy) was used to assess vestibulomotor function. On the day prior to injury, mice(n = 11–12 mice per group) underwent one training trial at an accelerating rotational speed(4–40 rpm) for at least 200 seconds and then three additional test trials with the same accelerating rotational speed. The average time to fall from the rotating cylinder in the test trials was recorded as baseline latency. Mice were tested on consecutive days post-injury and received three consecutive daily trials with accelerating rotational speed(inter-trial interval = 15 minutes)(n = 10–12 mice). The average latency to fall from the rod was recorded. Mice unable to grasp the rotating rod were given a latency value of 0 seconds.

[2] = mouse, in vivo, iv, 1.92 mg/kg
Experimental: Pharmacokinetic studies were conducted by Xenobiotic Laboratories(Plainsboro, NJ). Briefly, male CD-1 mice received a single IV bolus dose of [^14C] CN-105 52 μCi/mg(dose of 1.92 mg/kg, and approximately 100 μCi/kg) by tail vein injection. At 0.083, 0.5, 1, 6, 24, and 48 hours post-dose terminal blood samples were collected from 2 animals per timepoint and plasma was isolated for radiometric analysis.
To assess CNS penetration, quantitative whole body autoradiography(QWBA) analysis was performed and areas of interest in blood and brain were compared. The carcasses were frozen in a dry ice/hexane bath and embedded in low viscosity carboxymethylcellulose for sagittal, 30-μm thick sections of low viscosity carboxymethylcellulose-of mouse carcasses were sectioned. Pharmacokinetic data were generated by non-compartmental PK analysis of total radioactivity concentration vs. time profiles for tissues using WinNonlin(version 6.3, Pharsight Corporation, Mountain View, CA).
Selected tissues and areas of interest(AOI) were analyzed using QWBA. The tissues and AOI were analyzed within AIDA software using a region sampling tool. The following parameters were derived for individual subjects: maximum tissue and plasma concentration(Cmax), time of Cmax(tmax), area under the tissue concentration versus time curve from time zero to the last quantifiable tissue concentration(AUC0-t), area under the tissue concentration versus time curve from time zero to 4 hours(AUC0-4), and the apparent terminal half-life(t½). AUC0-4 was calculated using the linear trapezoidal rule. Results for AOIs are expressed in nanogram equivalents of(^14C) CN-105 per gram of tissue(ng equv./g) and were calculated as follows: ng equiv./g is equal to nCi per gram of tissue per nCi/ng of(^14C) CN-105.

Ac-VSRRR-amide [CN-105]
Rotarod functional performance compared to vehicle ([1]; 0.0125 mg/kg iv 2 h after TBI, p = 0.267): did not show robust improvement | Rotarod functional performance compared to vehicle ([1]; 0.05 mg/kg iv 2 h after TBI, p = 0.011): improved functional performance | Rotarod latency compared to vehicle ([1]; 0.05 mg/kg iv 4 hours post-injury): significant and durable improvement in Rotarod latency | Rotarod functional performance compared to vehicle ([1]; 0.2 mg/kg iv 2 h after TBI, p = 0.023): improved functional performance | Rotarod functional performance compared to vehicle ([1]; 0.8 mg/kg iv 2 h after TBI, p = 0.009): improved functional performance | lowest effective dose resulting in improved functional performance ([1]; iv 2 h after TBI, Rotarod): 0.05 mg/kg | effect of pretreatment on vestibulomotor and cognitive function ([1]; pretreatment 30 minutes prior to TBI, data not shown): no additional effects on vestibulomotor and cognitive function | initial plasma half-life [2]: 29 min | tmax in serum [2]: 5 min | tmax in the brain [2]: 30 min
